Structures can show the parent of a compound that is named as a salt.
system: Acinetobacter baumannii ATCC 17961; assay: Antimicrobial susceptibility testing: 90% growth inhibitory concentration (IC90) determination; assay type: cell-based; details: ATCC17961, Acinetobacter baumannii ATCC 17961, Iso-Sensitest broth, read-out: ATCC 17961 IC90
Outline: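 Growth was followed kinetically by OD600 at 20-min intervals for 16 h at 35±2 °C, with ~5×10^5 CFU/ml in Iso-Sensitest broth. Compounds were tested as twofold dilutions (e.g. 50–0.097 μM final). The concentration giving 90% inhibition of log-phase growth was reported.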

How did the IC90 turn out when `Cn1c(-c2cn(CC(F)F)nc2C(F)(F)F)cnc1C(=O)Nc1ccc(C(=O)N2CCN(CC(=O)NCCN)CC2)c(Cl)c1` [Example 375, N-(4-(4-(2-((2-aminoethyl)amino)-2-oxoethyl)piperazine-1-carbonyl)-3-chlorophenyl)-5-(1-(2,2-difluoroethyl)-3-(trifluoromethyl)-1H-pyrazol-4-yl)-1-methyl-1H-imidazole-2-carboxamide formate] was run?
Its IC90 is 495 nM.

For `Cn1c(-c2cn(C3CC3)nc2C(F)(F)F)cnc1C(=O)Nc1ccc(C(=O)NCCCCCCNC(=O)NCC2CNC2)c(Cl)c1` [Example 378, N-[4-[6-(azetidin-3-ylmethylcarbamoylamino)hexyl-carbamoyl]-3-chlorophenyl]-5-[1-cyclopropyl-3-(trifluoromethyl)pyrazol-4-yl]-1-methylimidazole-2-carboxamide;formic acid], which IC90 is on record?
Its IC90 is 497 nM.

How did the IC90 turn out when `Cn1c(-c2cn(C3CC3C(F)(F)F)nc2C(F)(F)F)cnc1C(=O)Nc1ccc(C(=O)N2CCN(C(=O)C3CCNCC3)CC2)c(Cl)c1` (centres unmarked) [Example 379, N-(3-chloro-4-(4-(piperidine-4-carbonyl)piperazine-1-carbonyl)phenyl)-1-methyl-5-(3-(trifluoromethyl)-1-(2-(trifluoromethyl)cyclopropyl)-1H-pyrazol-4-yl)-1H-imidazole-2-carboxamide formate] was run?
Its IC90 is 499 nM.

With `Cn1c(-c2cn([C@@H]3CC3(F)F)nc2C(F)(F)F)cnc1C(=O)Nc1ccc(C(=O)N[C@H]2[C@@H]3CN(C(=O)N[C@H]4CNC[C@@H]4O)C[C@@H]32)c(Cl)c1` [Example 380, (1R,5S,6R)-6-(2-chloro-4-(5-(1-((R)-2,2-difluorocyclopropyl)-3-(trifluoromethyl)-1H-pyrazol-4-yl)-1-methyl-1H-imidazole-2-carboxamido)benzamido)-N-((3S,4S)-4-hydroxypyrrolidin-3-yl)-3-azabicyclo[3.1.0]hexane-3-carboxamide] as the compound, how does the IC90 read?
The IC90 was 104 nM.

How did the IC90 turn out when `Cn1c(-c2cn(C3CC3)nc2C(F)(F)F)cnc1C(=O)Nc1ccc(C(=O)N2CCN(C(=O)[C@H]3[C@@H]4CNC[C@@H]43)CC2)c(Cl)c1` [Example 383, N-[3-chloro-4-[4-[rac-(1R,5S)-3-azabicyclo[3.1.0]hexane-6-carbonyl]piperazine-1-carbonyl]phenyl]-5-[1-cyclopropyl-3-(trifluoromethyl)pyrazol-4-yl]-1-methylimidazole-2-carboxamide;hydrochloride] was run?
The IC90 was 234 nM.

With `C#CCn1cc(-c2cnc(C(=O)Nc3ccc(C(=O)N[C@H]4[C@@H]5CN(C(=O)N[C@@H]6CNC[C@H]6O)C[C@@H]54)c(Cl)c3)n2C)c(C(F)(F)F)n1` [Example 384, (1R,5S,6s)-6-(2-chloro-4-(1-methyl-5-(1-(prop-2-yn-1-yl)-3-(trifluoromethyl)-1H-pyrazol-4-yl)-1H-imidazole-2-carboxamido)benzamido)-N-((3R,4R)-4-hydroxypyrrolidin-3-yl)-3-azabicyclo[3.1.0]hexane-3-carboxamide formate] as the compound, how does the IC90 read?
The IC90 was 64 nM.

For `Cn1c(-c2cn(CC(F)F)nc2C(F)(F)F)cnc1C(=O)Nc1ccc(C(=O)N[C@H]2[C@@H]3CN(C(=O)N[C@@H]4CNC[C@H]4O)C[C@@H]32)c(Cl)c1` [Example 386, (1R,5S,6s)-6-(2-chloro-4-(5-(1-(2,2-difluoroethyl)-3-(trifluoromethyl)-1H-pyrazol-4-yl)-1-methyl-1H-imidazole-2-carboxamido)benzamido)-N-((3R,4R)-4-hydroxypyrrolidin-3-yl)-3-azabicyclo[3.1.0]hexane-3-carboxamide formate], which IC90 is on record?
The IC90 was 110 nM.

How did the IC90 turn out when `C=CCn1cc(-c2cnc(C(=O)Nc3ccc(C(=O)N[C@H]4[C@@H]5CN(C(=O)N[C@@H]6CNC[C@H]6O)C[C@@H]54)c(Cl)c3)n2C)c(C(F)(F)F)n1` [Example 387, (1R,5S,6s)-6-(4-(5-(1-allyl-3-(trifluoromethyl)-1H-pyrazol-4-yl)-1-methyl-1H-imidazole-2-carboxamido)-2-chlorobenzamido)-N-((3R,4R)-4-hydroxypyrrolidin-3-yl)-3-azabicyclo[3.1.0]hexane-3-carboxamide formate] was run?
Its IC90 is 130 nM.

With `Cn1c(-c2cn(CC3CCC3)nc2C(F)(F)F)cnc1C(=O)Nc1ccc(C(=O)N[C@H]2[C@@H]3CN(C(=O)N[C@@H]4CNC[C@H]4O)C[C@@H]32)c(Cl)c1` [Example 388, (1R,5S,6s)-6-(2-chloro-4-(5-(1-(cyclobutylmethyl)-3-(trifluoromethyl)-1H-pyrazol-4-yl)-1-methyl-1H-imidazole-2-carboxamido)benzamido)-N-((3R,4R)-4-hydroxypyrrolidin-3-yl)-3-azabicyclo[3.1.0]hexane-3-carboxamide formate] as the compound, how does the IC90 read?
The IC90 was 170 nM.

same assay, conditions: Acinetobacter baumannii ATCC 17961, Iso-Sensitest broth, read-out: ATCC 17961 IC90

With “N-(3-amino-3- methylcyclobutyl)-4-[2-chloro- 4-[[5-[1-cyclopropyl-3- (trifluoromethyl)pyrazol-4-yl]- 1-methylimidazole-2- carbonyl]amino]benzoyl]pipera- zine-1-carboxamide;formic acid [Example 238]” as the compound, how does the IC90 read?
Its IC90 is 273 nM.

“N-[4-[4-[(3S)-3-carbonyl]piperazine-1-carbonyl]-3-chlorophenyl]-1-methyl-5-[1-prop-2-ynyl-3-(trifluoromethyl)pyrazol-4-yl]imidazole-2-carboxamide [Example 80]” was tested. Which IC90 did it give?
Its IC90 is 212 nM.

How did the IC90 turn out when “N-[4-[(4-aminocyclohexyl)carbamoyl]-3-chlorophenyl]-1-methyl-5-[3-(trifluoromethyl)-1H-pyrazol-4-yl]imidazole-2-carboxamide;2,2,2-trifluoroacetic acid [Example 123]” was run?
The IC90 was 3840 nM.

How did the IC90 turn out when “formic acid;rac-(1S,5R)-8-[2- chloro-4-[[5-[1-(2,2- difluorocyclopropyl)-3- (trifluoromethyl)pyrazol-4-yl]- 1-methyl-imidazole-2- carbonyl]amino]benzoyl]-N- [rac-(3S,4S)-4- hydroxypyrrolidin-3-yl]-3,8- diazabicyclo[3.2.1]octane-3- carboxamide [Example 377]” was run?
The IC90 was 497 nM.

How did the IC90 turn out when “rac-4-(2-chloro-4-(5-(1- cyclopropyl-3-(trifluoromethyl)- 1H-pyrazol-4-yl)-1-methyl-1H- imidazole-2- carboxamido)benzoyl)-N- ((1s,3s)-3- (methylamino)cyclobutyl)pipera- zine-1-carboxamide formate [Example 256]” was run?
The IC90 was 313 nM.
